# Data taken from US9642831B2, “Substituted chromanes and method of use” (AbbVie S.á.r.l., priority 2014, dated 2017).
# Molecular target: F508delCFTR (Homo sapiens, UniProt P13569, DEL508-508)
# Experiment: Cell Surface Expression-Horse Radish Peroxidase (CSE-HRP) assay
# Format: cell-based
# Set-up: expressed in transfected cells; host or cells: CFBE41o- human lung derived epithelial cell line, doxycycline-inducible
# Details: CFBE4lo-F508delCFTR-HRP cells; for EC50: 18-24 hours at 33° C., 8-point curve, highest concentration 20 μM, luminescence readout; for Emax: maximum % activity at any tested concentration, normalized to on-plate positive control (3 μM Example 1)
# Excerpt: Cell Surface Expression-Horse Radish Peroxidase (CSE-HRP) Assay:
# A cellular assay for measuring the F508delCFTR cell surface expression after correction with test compounds was developed in human lung derived epithelial cell line (CFBE4lo-) (Veit G et al, (2012) Mol Biol Cell. 23(21): 4188-4202). This was achieved by expressing the F508delCFTR mutation along with a horseradish peroxidase (HRP) in the fourth exofacial loop and then measuring the HRP activity using luminescence readout from these cells, CFBE4lo-F508delCFTR-HRP, that were incubated overnight with the test corrector compounds. Briefly, for this primary assay, the CFBE4lo-F508delCFTR-HRP cells were plated in 384-well plates (Greiner Bio-one; Cat 781080) at 4,000 cells/well along with 0.5 μg/mL doxycycline to induce the F508delCFTR-HRP expression and further incubated at 37° C., 5% CO2 for 72 hours. The test compounds were then added at the required concentrations and further incubated for 18-24 hours at 33° C. The highest concentration tested was 20 μM with an 8-point concentration response curve using a 3-fold dilution. Three replicate plates were run to determine one EC50. All plates contained negative controls (dimethyl sulfoxide, DMSO) and positive controls (3 μM of 3-[(2R,4R)-4-({[1-(2,2-difluoro-1,3-benzodioxol-5-yl)cyclopropyl]carbonyl}amino)-7-methoxy-3,4-dihydro-2H-chromen-2-yl]benzoic acid) as well as on-plate concentration response of the positive control. Post incubation, the plates were washed 5× times with Dulbecco's phosphate buffered saline (DPBS), followed by the addition of the HRP substrate, luminol (50 μL), and measuring the HRP activity using luminescence readout on EnVision® Multilabel Plate Reader (Perkin Elmer; product number 2104-0010). The raw counts from the experiment are analyzed using Accelrys® Assay Explorer v3.3.
# Z′ greater than 0.5 was used as passing quality control criteria for the plates.
# The Z′ is defined as: 1−[3*SDPositive Control+3*SDNegative Control/Absolute(MeanPositive Control−MeanNegative Control)] wherein “SD” is standard deviation.
# The % activity measured at each of the 8 test concentrations of the test compound was normalized to the on-plate positive control using the following formula: % activity=[(test compound response−DMSO response)/(positive control response−DMSO response)]*100
# The maximum % activity achieved for the test compound at any tested concentration is presented in Table 1 along with the EC50 calculated using the following general sigmoidal curve with variable Hill slope equation (described as Model 42 in the Accelrys® Assay Explorer v3.3 software): y=(a−d)/(1+(x/c)^b)+d
# General sigmoidal curve with concentration, response, top, bottom, EC50 and Hill slope.
# This model describes a sigmoidal curve with an adjustable baseline, a. The equation can be used to fit curves where response is either increasing or decreasing with respect to the independent variable, “x”.
# “x” is a concentration of drug under test.
# “a” is the maximum response, and “d” is the minimum response
# “c” is the inflection point (EC50) for the curve. That is, “y” is halfway between the lower and upper asymptotes when x=c.
# “b” is the slope-factor or Hill coefficient. The sign of b is positive when the response increases with increasing dose and is negative when the response decreases with increasing dose (inhibition).
# F508delCFTR, sequence (P13569 with tags, fused parts or gaps DEL508-508): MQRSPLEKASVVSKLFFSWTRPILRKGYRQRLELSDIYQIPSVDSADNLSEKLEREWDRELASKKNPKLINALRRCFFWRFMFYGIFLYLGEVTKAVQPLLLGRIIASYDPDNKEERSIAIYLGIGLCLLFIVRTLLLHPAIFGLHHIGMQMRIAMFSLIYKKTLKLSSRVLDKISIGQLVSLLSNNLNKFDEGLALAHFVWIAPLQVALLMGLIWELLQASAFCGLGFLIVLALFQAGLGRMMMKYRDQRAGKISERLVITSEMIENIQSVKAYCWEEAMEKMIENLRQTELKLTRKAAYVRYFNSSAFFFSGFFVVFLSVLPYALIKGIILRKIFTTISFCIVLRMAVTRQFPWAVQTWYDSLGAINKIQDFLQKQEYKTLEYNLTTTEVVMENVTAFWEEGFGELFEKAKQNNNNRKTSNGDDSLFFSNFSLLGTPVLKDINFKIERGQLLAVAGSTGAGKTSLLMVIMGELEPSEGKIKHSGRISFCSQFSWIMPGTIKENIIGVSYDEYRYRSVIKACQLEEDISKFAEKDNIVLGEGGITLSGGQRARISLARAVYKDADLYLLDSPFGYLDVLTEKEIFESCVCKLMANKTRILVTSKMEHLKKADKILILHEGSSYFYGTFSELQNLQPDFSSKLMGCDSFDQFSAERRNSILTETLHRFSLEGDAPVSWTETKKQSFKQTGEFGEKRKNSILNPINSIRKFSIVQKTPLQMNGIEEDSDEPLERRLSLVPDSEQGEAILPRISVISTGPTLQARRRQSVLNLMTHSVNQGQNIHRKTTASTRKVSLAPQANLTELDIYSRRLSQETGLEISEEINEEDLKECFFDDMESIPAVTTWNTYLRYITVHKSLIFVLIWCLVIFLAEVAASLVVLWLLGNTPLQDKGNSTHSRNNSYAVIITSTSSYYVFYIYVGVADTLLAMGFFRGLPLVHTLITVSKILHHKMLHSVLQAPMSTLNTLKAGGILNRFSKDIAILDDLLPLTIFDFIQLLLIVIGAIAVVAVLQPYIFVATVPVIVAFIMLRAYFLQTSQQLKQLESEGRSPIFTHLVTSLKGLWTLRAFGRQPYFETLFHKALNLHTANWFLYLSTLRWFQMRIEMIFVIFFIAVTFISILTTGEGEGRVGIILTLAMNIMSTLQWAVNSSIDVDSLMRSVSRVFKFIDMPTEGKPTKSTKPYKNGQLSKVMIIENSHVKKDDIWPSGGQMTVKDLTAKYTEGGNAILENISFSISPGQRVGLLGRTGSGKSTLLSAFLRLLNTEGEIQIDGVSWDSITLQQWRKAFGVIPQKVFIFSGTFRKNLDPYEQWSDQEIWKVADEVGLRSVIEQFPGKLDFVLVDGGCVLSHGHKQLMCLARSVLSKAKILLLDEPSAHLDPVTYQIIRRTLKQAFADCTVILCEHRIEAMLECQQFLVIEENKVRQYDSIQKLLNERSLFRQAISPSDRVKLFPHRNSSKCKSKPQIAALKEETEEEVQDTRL
Compound,EC50,Emax
"COc1ccc2c(c1)O[C@@H](C(=O)N(CCO)Cc1ccccc1)C[C@H]2NC(=O)C1(c2ccc3c(c2)OC(F)(F)O3)CC1 (racemic) [Example 167, rac-(2R,4R)—N-benzyl-4-({[1-(2,2-difluoro-1,3-benzodioxol-5-yl)cyclopropyl]carbonyl}amino)-N-(2-hydroxyethyl)-7-methoxy-3,4-dihydro-2H-chromene-2-carboxamide]",1080 nM,66%
"COc1ccc2c(c1)O[C@@H](C(=O)N(C)CC(O)c1ccccc1)C[C@H]2NC(=O)C1(c2ccc3c(c2)OC(F)(F)O3)CC1 (mixture of isomers) [Example 168, rac-(2R,4R)-4-({[1-(2,2-difluoro-1,3-benzodioxol-5-yl)cyclopropyl]carbonyl}amino)-N-(2-hydroxy-2-phenylethyl)-7-methoxy-N-methyl-3,4-dihydro-2H-chromene-2-carboxamide]",1160 nM,67%
"COc1ccc2c(c1)O[C@@H](C(=O)N1CCN(CCO)CC1)C[C@H]2NC(=O)C1(c2ccc3c(c2)OC(F)(F)O3)CC1 (racemic) [Example 169, rac-1-(2,2-difluoro-1,3-benzodioxol-5-yl)-N-[(2R,4R)-2-{[4-(2-hydroxyethyl)piperazin-1-yl]carbonyl}-7-methoxy-3,4-dihydro-2H-chromen-4-yl]cyclopropanecarboxamide]",4900 nM,38%
"COc1ccc2c(c1)O[C@@H](C(=O)NC(C)(C)CO)C[C@H]2NC(=O)C1(c2ccc3c(c2)OC(F)(F)O3)CC1 (racemic) [Example 170, rac-(2R,4R)-4-({[1-(2,2-difluoro-1,3-benzodioxol-5-yl)cyclopropyl]carbonyl}amino)-N-(1-hydroxy-2-methylpropan-2-yl)-7-methoxy-3,4-dihydro-2H-chromene-2-carboxamide]",1550 nM,65%
"COc1ccc2c(c1)O[C@@H](C(=O)NC(CO)c1ccccc1)C[C@H]2NC(=O)C1(c2ccc3c(c2)OC(F)(F)O3)CC1 (mixture of isomers) [Example 171, rac-(2R,4R)-4-({[1-(2,2-difluoro-1,3-benzodioxol-5-yl)cyclopropyl]carbonyl}amino)-N-(2-hydroxy-1-phenylethyl)-7-methoxy-3,4-dihydro-2H-chromene-2-carboxamide]",2290 nM,40%
"COc1ccc2c(c1)O[C@@H](C(=O)NC1CCS(=O)(=O)CC1)C[C@H]2NC(=O)C1(c2ccc3c(c2)OC(F)(F)O3)CC1 (racemic) [Example 172, rac-(2R,4R)-4-({[1-(2,2-difluoro-1,3-benzodioxol-5-yl)cyclopropyl]carbonyl}amino)-N-(1,1-dioxidotetrahydro-2H-thiopyran-4-yl)-7-methoxy-3,4-dihydro-2H-chromene-2-carboxamide]",4080 nM,66%
"COc1ccc2c(c1)O[C@@H](C(=O)NC1(C(F)(F)F)COC1)C[C@H]2NC(=O)C1(c2ccc3c(c2)OC(F)(F)O3)CC1 (racemic) [Example 173, rac-(2R,4R)-4-({[1-(2,2-difluoro-1,3-benzodioxol-5-yl)cyclopropyl]carbonyl}amino)-7-methoxy-N-[3-(trifluoromethyl)oxetan-3-yl]-3,4-dihydro-2H-chromene-2-carboxamide]",2150 nM,27%
"COc1ccc2c(c1)O[C@@H](C(=O)N1CCC(F)(F)CC1)C[C@H]2NC(=O)C1(c2ccc3c(c2)OC(F)(F)O3)CC1 (racemic) [Example 174, rac-1-(2,2-difluoro-1,3-benzodioxol-5-yl)-N-{(2R,4R)-2-[(4,4-difluoropiperidin-1-yl)carbonyl]-7-methoxy-3,4-dihydro-2H-chromen-4-yl}cyclopropanecarboxamide]",1730 nM,55%
"COc1ccc2c(c1)O[C@@H](C(=O)N1CCCOCC1)C[C@H]2NC(=O)C1(c2ccc3c(c2)OC(F)(F)O3)CC1 (racemic) [Example 175, rac-1-(2,2-difluoro-1,3-benzodioxol-5-yl)-N-[(2R,4R)-7-methoxy-2-(1,4-oxazepan-4-ylcarbonyl)-3,4-dihydro-2H-chromen-4-yl]cyclopropanecarboxamide]",3200 nM,54%
"COc1ccc2c(c1)O[C@@H](C(=O)N(C)C1COC1)C[C@H]2NC(=O)C1(c2ccc3c(c2)OC(F)(F)O3)CC1 (racemic) [Example 176, rac-(2R,4R)-4-({[1-(2,2-difluoro-1,3-benzodioxol-5-yl)cyclopropyl]carbonyl}amino)-7-methoxy-N-methyl-N-(oxetan-3-yl)-3,4-dihydro-2H-chromene-2-carboxamide]",9630 nM,30%
"COc1ccc2c(c1)O[C@@H](C(=O)N1CCOCC1)C[C@H]2NC(=O)C1(c2ccc3c(c2)OC(F)(F)O3)CC1 (racemic) [Example 177, rac-1-(2,2-difluoro-1,3-benzodioxol-5-yl)-N-[(2R,4R)-7-methoxy-2-(morpholin-4-ylcarbonyl)-3,4-dihydro-2H-chromen-4-yl]cyclopropanecarboxamide]",2910 nM,56%
"COc1ccc2c(c1)O[C@@H](C(=O)NC(CO)c1ccccc1OC)C[C@H]2NC(=O)C1(c2ccc3c(c2)OC(F)(F)O3)CC1 (mixture of isomers) [Example 178, rac-(2R,4R)-4-({[1-(2,2-difluoro-1,3-benzodioxol-5-yl)cyclopropyl]carbonyl}amino)-N-[2-hydroxy-1-(2-methoxyphenyl)ethyl]-7-methoxy-3,4-dihydro-2H-chromene-2-carboxamide]",740 nM,64%
"COc1ccc2c(c1)O[C@@H](C(=O)NCCc1cccc(O)c1)C[C@H]2NC(=O)C1(c2ccc3c(c2)OC(F)(F)O3)CC1 (racemic) [Example 179, rac-(2R,4R)-4-({[1-(2,2-difluoro-1,3-benzodioxol-5-yl)cyclopropyl]carbonyl}amino)-N-[2-(3-hydroxyphenyl)ethyl]-7-methoxy-3,4-dihydro-2H-chromene-2-carboxamide]",800 nM,69%
"COc1ccc2c(c1)O[C@@H](C(=O)NC(CO)CO)C[C@H]2NC(=O)C1(c2ccc3c(c2)OC(F)(F)O3)CC1 (racemic) [Example 180, rac-(2R,4R)-4-({[1-(2,2-difluoro-1,3-benzodioxol-5-yl)cyclopropyl]carbonyl}amino)-N-(1,3-dihydroxypropan-2-yl)-7-methoxy-3,4-dihydro-2H-chromene-2-carboxamide]",5930 nM,59%
"COc1ccc2c(c1)O[C@@H](C(=O)NC1c3ccccc3CC1O)C[C@H]2NC(=O)C1(c2ccc3c(c2)OC(F)(F)O3)CC1 (mixture of isomers) [Example 181, rac-(2R,4R)-4-({[1-(2,2-difluoro-1,3-benzodioxol-5-yl)cyclopropyl]carbonyl}amino)-N-(2-hydroxy-2,3-dihydro-1H-inden-1-yl)-7-methoxy-3,4-dihydro-2H-chromene-2-carboxamide]",1590 nM,57%
"COc1ccc2c(c1)O[C@@H](C(=O)Nc1ccccc1O)C[C@@H]2NC(=O)C1(c2ccc3c(c2)OC(F)(F)O3)CC1 (racemic) [Example 182, rac-(2R,4S)-4-({[1-(2,2-difluoro-1,3-benzodioxol-5-yl)cyclopropyl]carbonyl}amino)-N-(2-hydroxyphenyl)-7-methoxy-3,4-dihydro-2H-chromene-2-carboxamide]",800 nM,46%
"CCCN(CCO)C(=O)[C@H]1C[C@H](NC(=O)C2(c3ccc4c(c3)OC(F)(F)O4)CC2)c2ccc(OC)cc2O1 (racemic) [Example 183, rac-(2R,4S)-4-({[1-(2,2-difluoro-1,3-benzodioxol-5-yl)cyclopropyl]carbonyl}amino)-N-(2-hydroxyethyl)-7-methoxy-N-propyl-3,4-dihydro-2H-chromene-2-carboxamide]",860 nM,67%
